# Experimental data as given in the supplement of paper PMC10307832.
# Key:
# Assay in all cases: relative viability (nuclei count vs DMSO), 5 days (fraction); higher = more cells survive
# [1] = compound: CNC(=O)c1ccccc1Sc1ccc2c(/C=C/c3ccccn3)n[nH]c2c1 [Axitinib] + O=C(c1cc(Cc2n[nH]c(=O)c3ccccc23)ccc1F)N1CCN(C(=O)C2CC2)CC1 [Olaparib] (partner 8 µM)
# Method in brief: (§1)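 Relative viability equals treated-well nuclei counts divided by vehicle-well nuclei counts. Counts came from 4× images of lung cancer cell lines grown in 1536-well plates for 5 days after pin-tool dosing on the day after seeding. Dosing used one drug alone or a fixed anchor-drug dose plus five library-drug doses (not always all listed) in √10 steps, and values are medians of duplicate plates.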
# [2] = compound: CC1=CC=C(C=C1)C(=O)CN2C3=C(CCCC3)SC2=N [Pifithrin_alpha] + Cc1cc(Nc2cc(N3CCN(C)CC3)nc(Sc3ccc(NC(=O)C4CC4)cc3)n2)n[nH]1 [Tozasertib] (partner 0.1 µM)
# Method in brief: as §1
# [3] = compound: Nc1nc(Nc2ccc3c(c2)CC[C@@H](N2CCCC2)CC3)nn1-c1cc2c(nn1)-c1ccccc1CCC2 [Bemcentinib] + CCNC(=O)c1noc(-c2cc(C(C)C)c(O)cc2O)c1-c1ccc(CN2CCOCC2)cc1 [Luminespib] (partner 0.01 µM)
# Method in brief: as §1
# [4] = compound: Nc1nc(Nc2ccc3c(c2)CC[C@@H](N2CCCC2)CC3)nn1-c1cc2c(nn1)-c1ccccc1CCC2 [Bemcentinib] + Cc1cc(Nc2cc(N3CCN(C)CC3)nc(Sc3ccc(NC(=O)C4CC4)cc3)n2)n[nH]1 [Tozasertib] (partner 0.1 µM)
# Method in brief: as §1
cell line,measurement,setting,value
NCI-H650,relative viability,[1]; first compound 0.005 µM,0.403
same,relative viability,[1]; first compound 0.01581 µM,0.389
same,relative viability,[1]; first compound 0.05 µM,0.394
same,relative viability,[1]; first compound 0.1581 µM,0.406
same,relative viability,[1]; first compound 0.5 µM,0.444
same,relative viability,[2]; first compound 3.162 µM,0.79
same,relative viability,[2]; first compound 10 µM,0.678
same,relative viability,[2]; first compound 31.62 µM,0.548
same,relative viability,[2]; first compound 100 µM,0.624
same,relative viability,[3]; first compound 0.04 µM,0.8
same,relative viability,[3]; first compound 0.1265 µM,0.963
same,relative viability,[3]; first compound 0.4 µM,0.922
same,relative viability,[3]; first compound 1.265 µM,0.749
same,relative viability,[3]; first compound 4 µM,0.729
same,relative viability,[4]; first compound 0.04 µM,0.715
same,relative viability,[4]; first compound 0.1265 µM,0.848
same,relative viability,[4]; first compound 0.4 µM,0.798
same,relative viability,[4]; first compound 1.265 µM,0.77
same,relative viability,[4]; first compound 4 µM,0.718
